Measurements as given in publication PMC6759476, “Prior Activation of 5-HT7 Receptors Modulates the Conditioned Place Preference With Methylphenidate” (Frontiers in Behavioral Neuroscience, 2019).

What was measured:
5-HT1A = target: 5-HT1A; design: method as in Lacivita et al., 2016; conditions: ref Lacivita et al., 2016; cited from earlier work
5-HT6 = target: 5-HT6; design: method as in Lacivita et al., 2016; conditions: ref Lacivita et al., 2016; cited from earlier work
D2 = target: D2; design: method as in Lacivita et al., 2016; conditions: ref Lacivita et al., 2016; cited from earlier work
Alfa-1 = target: Alfa-1; design: method as in Lacivita et al., 2016; conditions: ref Lacivita et al., 2016; cited from earlier work
[1] = design: method as in Lacivita et al., 2016; Modica et al., 2018; conditions: in vivo bio-distribution; ref Lacivita et al., 2016; Modica et al., 2018; cited from earlier work
rats [2] = experiment: Conditioned place preference with MPH and TP-22; type: in vivo, rat (Wistar-Han)
Source text: The experimental apparatus used for the CPP test is a Black/White Box (BWB; Adriani et al., [2012]), i.e., a Plexiglas box with smooth walls and floor (70 × 30 × 35 cm) composed of two environments separated by a central gray wall placed at a distance of about 35 cm from end walls. The walls on the longer sides are gray whereas those on the short margins can be distinguished by black or white color. To make the two environments more recognizable, we added additional visual cues: three horizontal white stripes to the black wall and three vertical black stripes to the white wall. On the central gray wall there is a door with an easily removable panel (partition), allowing the experimental subjects to pass (or not) from one compartment chamber to the other, when required.
On both longer sides of the box, there are two aluminum bars equipped with eight photocells connected by cables to a computer. The software in use is Cage controller 1.27 for Dark Light for Rat and Mouse® (PRS, Rome, Italy)^2, that allows to score for each subject:
• Motor activity (beam interruptions per second) in either chamber • Time spent in each chamber (both forepaws and hindpaws in a same chamber) • Transitions (number of times a subject crosses the door between the two chambers)
This test was carried out under dim light and required nine not consecutive days divided into four steps (Figures 2–4):
• Day 1, initial preference test. The spontaneous place preference of experimental subjects was tested in drug-free conditions. They were initially placed in the black chamber (chosen as starting room) and central door was open during the whole test (15 min). The triplet of rats residing in each home cage was tested at the same time. • Days 2–7, drug conditioning. On odd days all 18 subjects were injected with saline solution only and, after injection, immediately placed in the black chamber. […]
The dependent variable was calculated as final preference day minus initial preference day. […]

mice = tested on: mice; design: method as in Galici et al., 2008; Waters et al., 2012; conditions: ref Galici et al., 2008, Waters et al., 2012; cited from earlier work
rats [3] = tested on: rats; design: method as in Galici et al., 2008; Waters et al., 2012; conditions: ref Galici et al., 2008, Waters et al., 2012; cited from earlier work

**Q.** What does the source list for `N#Cc1ccc(CNC(=O)CCCCCN2CCN(c3ccccc3-c3ccccc3)CC2)cc1` [LP-211, N-(4-cyanophenylmethyl)-4–(2-biphenyl)-1-piperazinehexanamide]?
**A.** Ki (5-HT1A): 379 nM; Ki (5-HT6): 1570 nM; Ki (D2): 242 nM; Ki (Alfa-1): 22.6 nM; brain Cmax [1]: 540 ng/mL

**Q.** For `COC(=O)C(c1ccccc1)C1CCCCN1` (stereo not shown) [MPH, methylphenidate], which “locomotor activity on drug conditioning days (white chamber)” value (rats [2]; VEH then MPH 5 mg/kg i.v., vs saline control, P < 0.01) is on record?
**A.** Its value is “significantly enhanced”.

**Q.** And the “activity rate, post-conditioning preference test minus initial test” value (rats [2]; drug-free, VEH+MPH conditioned rats)?
**A.** The value was “negative during the entire session”.

**Q.** And the “time spent in the white side, post-conditioning preference test” value (rats [2]; drug-free, VEH+MPH conditioned rats, first 05 min)?
**A.** Its value is “slight preference for the white side”.

**Q.** Which amphetamine-induced hyperactivity (mice) does the source give for `CC1CCN(CC[C@H]2CCCN2S(=O)(=O)c2cccc(O)c2)CC1` [SB-269970] here?
**A.** Its amphetamine-induced hyperactivity is “significantly attenuated”.

**Q.** What about the amphetamine-induced hyperactivity (rats [3]) of the same compound?
**A.** Its amphetamine-induced hyperactivity is “significantly attenuated”.
